Experimental data published in patent US20050288360A1, “Nutraceutical compositions comprising epigallocatechin gallate and raspberry ketone” (priority 2002, published 2005).
Marks after values point to notes of the source that are not given here.

Tests used:
C57BLKS/J db/db mice = test: 5-week body weight study in db/db mice; format: in vivo; details: for Body weight, Initial: baseline, male db/db mice, standard rodent food; for Body weight, Initial / Body weight, Week 2 / Body weight, Week 4: feed-ad-mix 1400 mg/kg BW/day each, group mean; for Body weight decrease, Week 2 / Body weight decrease, Week 4: decrease in comparison to control group, 1400 mg/kg BW/day each
Method: The efficacy of the combination of EGCG and RK as well as of both compounds alone on body weight and adiposity was tested in a 5-week study in C57BLKS/J db/db mice (n=8-9/group). This model of late type 2 diabetes with severe hyperglycemia and obesity is widely used to determine the efficacy of anti-diabetic and anti-obesity compounds. Male db/db mice were obtained from Jackson Laboratory (Bar Harbor, Me., USA). Adult mice aged 8 weeks were used in the experiment. Mice were housed individually in plastic cages with bedding and allowed free access to standard rodent food and tap water. The animal rooms were controlled for temperature (24° C.), humidity (55%), and light (12-h light-dark cycle). The animals were randomized into four groups. EGCG and RK were administered as feed-ad-mix. Corn cellulose (2% of diet) served as a carrier substance for EGCG and RK as well as a placebo when used alone. Group 1 received placebo, group 2 received EGCG at a dose of 1400 mg/kg BW/day, group 3 received RI<at a dose of 1400 mg/kg BW/day, and group 4 received the combination of EGCG and RK at a doses of 1400 and 1400 mg/kg BW/day, respectively. Body weight and food intake were determined over the course of the study. All data are expressed as means for animals in each diet group. There was no difference in food intake between the groups over the study period. The decrease in body weight in comparison to the control group caused by each treatment was calculated (data are shown in Table 4). The expected treatment effect of the combined therapy with EGCG and RK was calculated by the sum of the effects exerted by monotherapy with EGCG or RK. The synergistic factor (SF) is defined as the quotient of the observed effect and the expected effect. If SF>1, a synergistic effect was exerted by the combined treatment.

[1] = system: C57BL6/J mice fed a high fat, high sucrose diet; test: 4-week body weight study in diet-induced obese mice; format: in vivo; details: for Body weight compared to control mice (in words): 4 week study period; for Body weight compared to control mice (in words) / Body weight, Initial / Body weight, Week 2 / Body weight, Week 4: high fat high sucrose diet; for Body weight, Initial: baseline, male C57BL6/J mice; for Body weight, Initial / Body weight, Week 2 / Body weight, Week 4: feed-ad-mix 1400 mg/kg BW/day each, group mean; for Body weight decrease, Week 2 / Body weight decrease, Week 4: decrease in comparison to control group, 1400 mg/kg BW/day each
Method: The efficacy of the combination of EGCG and RK as well as of both compounds alone on body weight and adiposity was tested in a 4-week study in C57BL6/J mice fed a high fat, high sucrose diet (n=8-11/group). This model of diet-induced obesity and early type 2 diabetes is widely used to determine the efficacy of anti-obesity compounds. Male C57BL6/J mice were obtained from Jackson Laboratory (Bar Harbor, Me., USA). Adult mice aged […] were used in the experiment. Mice were housed individually in plastic cages with bedding and allowed free access to a high fat, high sucrose mouse diet (Kliba # 2154, Klibamuehle, Kaiseraugst, Switzerland) and tap water. The animal rooms were controlled for temperature (24° C.), humidity (55%), and light (12-h light-dark cycle). The animals were randomized into four groups. EGCG and RK were administered as feed-ad-mix. Corn cellulose (2% of diet) served as a carrier substance for EGCG and RK as well as a placebo when used alone. Group 1 received placebo, group 2 received EGCG at a dose of 1400 mg/kg body weight (BW)/day, group 3 received RK at a dose of 1400 mg/kg BW/day, and group 4 received the combination of EGCG and RK at a doses of 1400 and 1400 mg/kg BW/day, respectively. Body weight and food intake were determined over the course of the study. All data are expressed as means for animals in each diet group. There was no difference in food intake between the groups over the study period. […] The decrease in body weight in comparison to the control group caused by each treatment was calculated (data are shown in Table 2). The expected treatment effect of the combined therapy with EGCG and RK was calculated by the sum of the effects exerted by monotherapy with EGCG or RK. The synergistic factor (SF) is defined as the quotient of the observed effect and the expected effect. If SF>1, a synergistic effect was exerted by the combined treatment.

Row | SMILES | Body weight, Initial (C57BLKS/J db/db mice) [g] | Body weight compared to untreated control (in words), after four weeks of treatment (C57BLKS/J db/db mice; db/db mice) | Body weight compared to control (in words), during the study period (C57BLKS/J db/db mice; db/db mice, whole study period) | Body weight decrease, Week 2 (C57BLKS/J db/db mice; week 2) [g] | Body weight decrease, Week 4 (C57BLKS/J db/db mice) [g] | Body weight, Week 2 (C57BLKS/J db/db mice; week 2, db/db mice) | Body weight, Week 4 (C57BLKS/J db/db mice; db/db mice) [g] | Body weight compared to control mice (in words) [1] | Body weight, Initial [1] [g] | Body weight decrease, Week 2 [1] [g] | Body weight decrease, Week 4 [1] [g] | Body weight, Week 2 [1] | Body weight, Week 4 [1] | Body weight compared to control mice (in words), week 2 (C57BLKS/J db/db mice; db/db mice, week 2)
1 | CC(=O)CCc1ccc(O)cc1 [RK, 4-(4-hydroxyphenyl)-2-butanone] | 32.5 | neither EGCG nor RK caused a significant decrease in body weight | did not significantly decrease body weight | 0.3 | 0.4 | 38.4 g | 38.0 | significant decrease in body weight | 11.5 | 1.6 | 1.5 | 19.0* g | 22.1* g | –
2 | O=C(O[C@@H]1Cc2c(O)cc(O)cc2O[C@@H]1c1cc(O)c(O)c(O)c1)c1cc(O)c(O)c(O)c1 [EGCG, epigallocatechin gallate] | 32.2 | neither EGCG nor RK caused a significant decrease in body weight | – | 3.0 | 0.8 | 35.7* g | 37.7 | significant decrease in body weight | 11.4 | 2.7 | 2.2 | 17.7* g | 21.4* g | significant decrease in body weight
